In patent US20260240815A1, “POTENT TRANSTHYRETIN (TTR) STABILIZATION IN TTR AMYLOIDOSIS PATIENTS RECEIVING ACORAMIDIS” (EIDOS THERAPEUTICS, INC., priority 2023, published 2026):
Values joined by “and” are separate entries in the source; they are usually repeats but may differ in a detail not shown here. Identical values can stand only once.

Assays:
[1] = biological target: T1, tetrameric TTR V94L (Homo sapiens, UniProt P02766, V114L); experiment: Western blot stabilization of tetrameric TTR, V94L patient sample; assay type: biochemical; conditions: N=1, 26 μM
T1 construct: from tissue; host or cells: patient blood plasma (Western blot) / serum (FPE)
Method: (§1) Stabilization of the tetramer of TTR by AG10 is determined by comparing the amount of tetrameric TTR protein remaining after acid denaturation for 72 hr to the initial amount of tetrameric TTR protein as determined by densitometric measurement of western blot gels.
(§2) Blood plasma samples from the subject are diluted with acidification buffer (sodium acetate, KCl, EDTA, DTT, pH about 4.0) for both the 0 and 72 hour time point. Time 0 hr samples are directly cross-linked with glutaraldehyde, and then quenched. 72 hr samples are incubated at room temperature for 72 hr and then cross-linked and quenched by the same protocol. All samples are then denatured by adding SDS gel loading buffer and boiled prior to gel loading. Each sample is separated in SDS-PAGE gels and analyzed by immunoblotting using anti-TTR antiserum (Polyclonal Rabbit Anti-Human Prealbumin. DAKO Cat #A0002). The density of all TTR bands are quantified using infrared LICOR imaging system or Fluorescence Imaging system and reported.
(§3) Methods: Two established assays assessed TTR stabilization: fluorescent probe exclusion (FPE; measures binding site occupancy), and Western blot (WB; quantifies tetrameric TTR persistence under conditions of accelerated dissociation). Examples of each assay are provided above. Over 60 individual patient samples representing 18 unique TTRv across a spectrum of intrinsic instability and clinical phenotypes were assayed. Acoramidis was added at […], the target clinical steady-sate trough concentration is 8-10 μM, and compared to Tafamidis added at its clinical peak (26 μM) and trough (16 μM) concentrations reported for its maximal approved dose.

[2] = biological target: T2, TTR S50R (Homo sapiens, UniProt P02766, S70R); experiment: Fluorescent probe exclusion (FPE), S50R patient serum; assay type: binding
T2 construct: from tissue; host or cells: patient blood plasma (Western blot) / serum (FPE)
Method: (§4) Occupancy of AG10 in the thyroxine binding pocket of tetrameric TTR is determined by the ability of a fluorescent probe (Probe) to covalently bind to free tetrameric TTR binding sites in serum over a 6 hr reaction time. The fluorescent probe only fluoresces upon covalently binding to the ligand binding site of TTR.
(§5) Aliquots of each serum sample are plated in 96 well plates. The fluorescence changes (λex=328 nm and λcm=384 nm) after addition of probe are monitored every 15 min using a fluorescent capable microplate for 6 hr at RT.
as §3

[3] = biological target: T3, TTR V122I (Homo sapiens, UniProt P02766, V142I); experiment: Fluorescent probe exclusion (FPE), V122I patient serum; assay type: binding
T3 construct: from tissue; host or cells: patient blood plasma (Western blot) / serum (FPE)
Method: as §4, §5, §3

[4] = biological target: T4, tetrameric TTR E42D (Homo sapiens, UniProt P02766, E62D); experiment: Western blot stabilization of tetrameric TTR, E42D patient sample; assay type: biochemical
T4 construct: from tissue; host or cells: patient blood plasma (Western blot) / serum (FPE)
Method: as §1, §2, §3

[5] = biological target: T5, tetrameric TTR T60A (Homo sapiens, UniProt P02766, T80A); experiment: Western blot stabilization of tetrameric TTR, T60A patient sample; assay type: biochemical
T5 construct: from tissue; host or cells: patient blood plasma (Western blot) / serum (FPE)
Method: as §1, §2, §3

[6] = biological target: T6, TTR (WT) (Homo sapiens, UniProt P02766); experiment: Fluorescent probe exclusion (FPE), healthy pooled serum (WT); assay type: binding; conditions: 6 replicates
T6 construct: from tissue; host or cells: serum (wild-type control)
Method: as §4, §5, §3

[7] = biological target: T7, TTR V30M (Homo sapiens, UniProt P02766, V50M); experiment: Fluorescent probe exclusion (FPE), V30M patient serum; assay type: binding
T7 construct: from tissue; host or cells: patient blood plasma (Western blot) / serum (FPE)
Method: as §4, §5, §3

[8] = test system: tetrameric TTR variants (TTRv); experiment: Western blot stabilization of tetrameric TTR, mean of all variant patient samples; assay type: biochemical, human
Method: as §1, §2, §3

[9] = biological target: T8, TTR I68L (Homo sapiens, UniProt P02766, I88L); experiment: Fluorescent probe exclusion (FPE), I68L patient serum; assay type: binding
T8 construct: from tissue; host or cells: patient blood plasma (Western blot) / serum (FPE)
Method: as §4, §5, §3

[10] = biological target: T9, TTR T60A (Homo sapiens, UniProt P02766, T80A); experiment: Fluorescent probe exclusion (FPE), T60A patient serum; assay type: binding
T9 construct: from tissue; host or cells: patient blood plasma (Western blot) / serum (FPE)
Method: as §4, §5, §3

[11] = biological target: T10, tetrameric TTR S50R (Homo sapiens, UniProt P02766, S70R); experiment: Western blot stabilization of tetrameric TTR, S50R patient sample; assay type: biochemical
T10 construct: from tissue; host or cells: patient blood plasma (Western blot) / serum (FPE)
Method: as §1, §2, §3

[12] = biological target: T11, TTR E42D (Homo sapiens, UniProt P02766, E62D); experiment: Fluorescent probe exclusion (FPE), E42D patient serum; assay type: binding
T11 construct: from tissue; host or cells: patient blood plasma (Western blot) / serum (FPE)
Method: as §4, §5, §3

[13] = biological target: T12, TTR E92Q (Homo sapiens, UniProt P02766, E112Q); experiment: Fluorescent probe exclusion (FPE), E92Q patient serum; assay type: binding
T12 construct: from tissue; host or cells: patient blood plasma (Western blot) / serum (FPE)
Method: as §4, §5, §3

[14] = biological target: T13, tetrameric TTR I68L (Homo sapiens, UniProt P02766, I88L); experiment: Western blot stabilization of tetrameric TTR, I68L patient sample; assay type: biochemical
T13 construct: from tissue; host or cells: patient blood plasma (Western blot) / serum (FPE)
Method: as §1, §2, §3

WB Mean % Stabilization (SD) [1]: 67.37% | FPE Mean % Stabilization (SD) ([2]; N=1, 16 μM): 60.34% | FPE Mean % Stabilization (SD) ([2]; N=1, 26 μM): 80.27% | FPE Mean % Stabilization (SD) ([3]; N=24, 16 μM): 76.54 (14.83) % | FPE Mean % Stabilization (SD) ([3]; N=24, 26 μM): 91.62 (15.18) % | WB Mean % Stabilization (SD) ([4]; N=1, 16 μM): 46.08% | WB Mean % Stabilization (SD) ([4]; N=1, 26 μM): 63.57% | WB Mean % Stabilization (SD) ([5]; N=3, 16 μM): 33.44 (1.60) % | WB Mean % Stabilization (SD) ([5]; N=3, 26 μM): 49.64 (8.33) % | FPE Mean % Stabilization (SD) ([6]; 16 μM): 48.61 (6.43) % | FPE Mean % Stabilization (SD) ([6]; 26 μM): 64.69 (5.52) % | FPE Mean % Stabilization (SD) ([7]; N=1, 16 μM): 66.32% | FPE Mean % Stabilization (SD) ([7]; N=1, 26 μM): 83.15% | FPE Mean % Stabilization (SD) ([9]; N=5, 16 μM): 63.95 (6.73) % | FPE Mean % Stabilization (SD) ([9]; N=5, 26 μM): 79.4 (5.28) % | FPE Mean % Stabilization (SD) ([10]; N=4, 16 μM): 68.10 (8.92) % | FPE Mean % Stabilization (SD) ([10]; N=4, 26 μM): 82.32 (6.05) % | WB Mean % Stabilization (SD) ([11]; N=1, 16 μM): 21.00% | WB Mean % Stabilization (SD) ([11]; N=1, 26 μM): 31.00% | FPE Mean % Stabilization (SD) ([12]; N=1, 16 μM): 55.28% | FPE Mean % Stabilization (SD) ([12]; N=1, 26 μM): 80.99% | FPE Mean % Stabilization (SD) ([13]; N=1, 16 μM): 66.97% | FPE Mean % Stabilization (SD) ([13]; N=1, 26 μM): 75.41% | WB Mean % Stabilization (SD) ([14]; N=7, 16 μM): 39.34 (8.59) % | WB Mean % Stabilization (SD) ([14]; N=7, 26 μM): 51.6 (8.00) %
Compound: O=C(O)c1ccc2nc(-c3cc(Cl)cc(Cl)c3)oc2c1 [Tafamidis, 2-(3,5-dichlorophenyl)-1,3-benzoxazole-6-carboxylic acid]
WB Mean % Stabilization (SD) ([8]; N=53, 16 μM (clinical trough)): 36±13% and 36.34 (12.88) % | WB Mean % Stabilization (SD) ([8]; N=53, 26 μM (clinical peak)): 49±14% and 49.10 (13.89) %
